The test system of assay [1] is whole complement. To be noted: 200 mg/kg, percent inhibition of serum complement vs simultaneous controls.
Protocol: With reference to Table I, guinea pigs weighing about 300 g were dosed intravenously (IV) or intraperitoneally (IP) with 200 mg/kg of the test compound dissolved in saline and adjusted to pH 7-8. One hour after dosing, the guinea pigs were decapitated, blood was collected and the serum separated. The serum was tested for whole complement using the capillary tube assay. Percent inhibition was calculated by comparison with simultaneous controls.
The subject of assay [2] is late components of human complement (C3-C9). Kind of assay: Test, Code 035 (C3-C9 inhibitor). In kind it is biochemical. To be noted: serial two-fold dilution assay; higher well number indicates higher activity; lysis of EAC 142.
Protocol: (§1) This test measures the ability of activated human C1 to destroy fluid phase human C2 in the presence of C4 and appropriate dilutions of the test compound. […] Inhibition of the shunt pathway results in failure of lysis; (iv) Forssman Test -- Here, the well known complement dependent lesion, Forssman vasculitis, is produced in guinea pigs by intradermal injection of rabbit anti-Forssman antiserum. […] The complement level is determined in undiluted serum by the capillary tube method of U.S. Pat. No. 3,876,376 and compared to undosed control guinea pigs; and (vii) Cap 50 Test -- Here, appropriate amounts of the test compound are added to a pool of guinea pig serum in vitro, after which the undiluted serum capillary tube assay referred to above is run.
Assay [3] has as its system shunt pathway activated by cobra venom factor. In kind it is cell-based. The note with it: serial two-fold dilution assay; higher well number indicates higher activity; human erythrocytes in autologous serum.
Protocol: as §1
In assay [4] the test system is complement in pool of guinea pig serum. Kind of assay: Cap 50 Test. To be noted: in vitro, undiluted guinea pig serum, capillary tube assay. In kind it is biochemical.
Protocol: as §1
In assay [5] the test system is activated human C1. Description: Test, Code 026 (C1 inhibitor). The note with it: serial two-fold dilution assay; higher well number indicates higher activity. In kind it is biochemical.
Protocol: as §1

Several values for one entry are separate records, joined by “and”; a condition that tells them apart may be missing. Identical values can stand only once.

For “Inulin, poly(H-sulfate)salt with triethylamine”, in assay [1] (2 Hr.), the “In Vivo Activity Guinea Pig (IV) 2 Hr.” value is given as -97. In addition, in assay [1] (30 Hr.), the “In Vivo Activity Guinea Pig (IV) 30 Hr.” value is -95. Moreover, the “In Vivo Activity Guinea Pig (IV) 120 Hr.” value in assay [1] (120 Hr.) was -91. For the same substance, the “C-Late 035” value in assay [2] is reported as 5 wells. In assay [3], the “Shunt Inhibit. 036” value turned out to be 5 wells. Moreover, the “Cap 50” value in assay [4] is 160. For the same substance, in assay [5], the “Cl 026” value is recorded as 8 wells.
As to “Inulin, poly(H-sulfate)salt with trimethylamine”, the “C-Late 035” value in assay [2] was found to be 6 wells. Also, the “Shunt Inhibit. 036” value in assay [3] is 5 wells. Moreover, the “Cap 50” value in assay [4] is given as 131. Moreover, in assay [5], the “Cl 026” value worked out at 8 wells.
Consider “Inulin, poly(H-sulfate)sodium salt [INULIN, POLY(H-SULFATE) SODIUM SALT]”, for which the “C-Late 035” value in assay [2] was 5 wells and 7 wells. Further, the “Shunt Inhibit. 036” value in assay [3] stood at 5 wells. Further, in assay [4], the “Cap 50” value is 100 and 94 and 92. Also, the “Cl 026” value in assay [5] was 7 wells and 10 wells.
